For test [1], the target named is T1, purified recombinant human Aggrecanase-1 (rAgg1) (Homo sapiens, UniProt O75173).
T1 sequence (O75173 213-837): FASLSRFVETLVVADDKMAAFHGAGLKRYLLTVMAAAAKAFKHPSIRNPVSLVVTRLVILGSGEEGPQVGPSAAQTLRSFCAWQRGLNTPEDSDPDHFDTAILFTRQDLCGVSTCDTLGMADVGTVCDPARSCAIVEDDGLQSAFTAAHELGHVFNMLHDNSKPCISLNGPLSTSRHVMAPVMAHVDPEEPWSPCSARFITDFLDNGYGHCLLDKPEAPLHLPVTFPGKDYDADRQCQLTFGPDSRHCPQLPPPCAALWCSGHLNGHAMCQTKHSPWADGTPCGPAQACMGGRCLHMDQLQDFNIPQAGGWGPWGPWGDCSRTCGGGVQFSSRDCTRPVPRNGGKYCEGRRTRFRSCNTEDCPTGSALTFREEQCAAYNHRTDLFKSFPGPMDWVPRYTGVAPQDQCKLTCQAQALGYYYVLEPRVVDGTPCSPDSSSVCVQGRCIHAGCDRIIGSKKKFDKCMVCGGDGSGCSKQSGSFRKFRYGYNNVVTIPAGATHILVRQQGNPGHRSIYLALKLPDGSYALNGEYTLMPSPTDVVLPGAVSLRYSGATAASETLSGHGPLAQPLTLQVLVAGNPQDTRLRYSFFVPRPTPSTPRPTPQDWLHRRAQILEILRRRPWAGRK
Put plainly: In vitro fluorescence screen for Aggrecanase-1 inhibitors. The test is classed as biochemical. As to conditions: Table 2; read-out: Agg1 IC50.

In test [2] the target is T2, purified recombinant human Aggrecanase-2 (Ag2t-Phe628-Strep) (Homo sapiens, UniProt Q9UNA0).
T2 construct: the form used is denoted as Ag2t-Phe628-Strep (MW=41,737)
T2 sequence (Q9UNA0 262-628): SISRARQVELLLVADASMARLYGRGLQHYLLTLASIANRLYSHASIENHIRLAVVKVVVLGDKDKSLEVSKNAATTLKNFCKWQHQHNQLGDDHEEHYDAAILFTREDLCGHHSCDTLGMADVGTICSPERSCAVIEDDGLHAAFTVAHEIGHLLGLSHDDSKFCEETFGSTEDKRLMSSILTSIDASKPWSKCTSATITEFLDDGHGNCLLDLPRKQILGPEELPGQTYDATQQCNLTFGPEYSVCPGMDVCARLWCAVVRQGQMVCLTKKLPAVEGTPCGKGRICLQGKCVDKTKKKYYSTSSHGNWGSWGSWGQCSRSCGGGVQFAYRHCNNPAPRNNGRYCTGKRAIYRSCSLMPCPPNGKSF
Put plainly: In vitro fluorescence screen for Aggrecanase-2 inhibitors. It counts as biochemical. As to conditions: Table 2; read-out: Agg 2 IC50.

Structures are written as SMILES.

For orientation: IC50 means the midpoint of a concentration-inhibition curve.

As for `Cc1cccc(-c2ccc(C(=O)N[C@@H](CCC(=O)O)C(=O)NC(C)(C)Cc3ccc(F)cc3)cc2)c1` [Example 17Y, N-[2-(4-fluorophenyl)-1,1-dimethylethyl]-N^2-[(3′-methylbiphenyl-4-yl)carbonyl]-L-α-glutamine], the IC50 in test [1] was less than 30 nM; in test [2], 156 nM.

Take `COc1cc(CNC(=O)[C@H](CCC(=O)O)NC(=O)c2ccc(-c3cccc(C(C)C)c3)cc2)cc(OC)c1OC` [Example 17Z, N^2-[(3′-isopropylbiphenyl-4-yl)carbonyl]-N-(3,4,5-trimethoxybenzyl)-L-α-glutamine]: the results for the IC50 in test [1] and in test [2] were 170 nM and 3140 nM, respectively.

For the molecule `COc1cc(CNC(=O)[C@H](CCC(=O)O)NC(=O)c2ccc(Br)cc2)cc(OC)c1OC` [Example 18D, N^2-(4-bromobenzoyl)-N-(3,4,5-trimethoxybenzyl)-L-α-glutamine], the figures for the IC50 in test [1] and in test [2] were 4400 nM and more than 22000 nM, respectively.

`CC(C)(Cc1ccccc1)NC(=O)[C@H](CCC(=O)O)NC(=O)c1ccc(Br)cc1` [Example 18E, N^2-(4-bromobenzoyl)-N-(1,1-dimethyl-2-phenylethyl)-L-α-glutamine]: the IC50 in test [1] was 2200 nM; in test [2], more than 11000 nM.

On to `O=C(O)CC[C@H](NC(=O)c1ccc(Br)cc1)C(=O)NCC12CC3CC(CC(C3)C1)C2` [Example 18F, N-(1-adamantylmethyl)-N^2-(4-bromobenzoyl)-L-α-glutamine], for which the IC50 in test [1] and in test [2] was more than 67000 nM throughout.

As to `COc1cccc(COc2ccc(-c3ccc(C(=O)N[C@@H](CCC(=O)O)C(=O)NCC45CC6CC(CC(C6)C4)C5)cc3)cc2)c1` [Example 19A, N-(1-adamantylmethyl)-N^2-({4′-[(3-methoxybenzyl)oxy]biphenyl-4-yl}carbonyl)-L-α-glutamine], the IC50 in test [1] amounted to 930 nM; in test [2], 1020 nM.

On to `COc1cc(COc2ccc(-c3ccc(C(=O)N[C@@H](CCC(=O)O)C(=O)NCC45CC6CC(CC(C6)C4)C5)cc3)cc2)cc(OC)c1` [Example 19B, N-(1-adamantylmethyl)-N^2-(4′-{[(3,5-dimethoxybenzyl)oxy]biphenyl-4-yl}carbonyl)-L-α-glutamine], for which the results for the 50% inhibitory concentration (IC50) in test [1] and in test [2] were 3200 nM and 590 nM, respectively.

With `COc1cc(COc2ccc(-c3ccc(C(=O)N[C@@H](CCC(=O)O)C(=O)NC(C)(C)Cc4ccccc4)cc3)cc2)cc(OC)c1` [Example 19C, N^2-({4′-[(3,5-dimethoxybenzyl)oxy]biphenyl-4-yl}carbonyl)-N-(1,1-dimethyl-2-phenylethyl)-L-α-glutamine], the IC50 came out at 140 nM in test [1] and 75 nM in test [2].

As to `COc1cc(CNC(=O)[C@H](CCC(=O)O)NC(=O)c2ccc(-c3ccc(OCc4cc(C)cc(C)c4)cc3)cc2)cc(OC)c1OC` [Example 19D, N^2-({4′-[(3,5-dimethylbenzyl)oxy]biphenyl-4-yl}carbonyl)-N-(3,4,5-trimethoxybenzyl)-L-α-glutamine], the IC50 worked out at 210 nM in test [1] and 223 nM in test [2].

`COc1cc(CNC(=O)[C@H](CCC(=O)O)NC(=O)c2ccc(-c3ccc(OCc4cc(C(F)(F)F)cc(C(F)(F)F)c4)cc3)cc2)cc(OC)c1OC` [Example 19E, N^2-[(4′-{[3,5-bis(trifluoromethyl)benzyl]oxy}biphenyl-4-yl)carbonyl]-N-(3,4,5-trimethoxybenzyl)-L-α-glutamine]: the values for the IC50 in test [1] and in test [2] were 49 nM and 1120 nM, respectively.

As for `COc1cccc(COc2ccc(-c3ccc(C(=O)N[C@@H](CCC(=O)O)C(=O)NC(C)(C)Cc4ccccc4)cc3)cc2)c1` [Example 19F, N-(1,1-dimethyl-2-phenylethyl)-N^2-({4′-[(3-methoxybenzyl)oxy]biphenyl-4-yl}carbonyl)-L-α-glutamine], the values for the IC50 in test [1] and in test [2] were 68 nM and 163 nM, respectively.

Regarding `COc1cc(COc2ccc(-c3ccc(C(=O)N[C@@H](CCC(=O)O)C(=O)NCCCCCCO)cc3)cc2)cc(OC)c1` [Example 19G, N^2-({4′-[(3,5-dimethoxybenzyl)oxy]biphenyl-4-yl}carbonyl)-N-(6-hydroxyhexyl)-L-α-glutamine], the values for the IC50 in test [1] and in test [2] were 270 nM and 146 nM, respectively.

The record behind these values is patent publication US7998965B2, “Glutamate aggrecanase inhibitors” (Wyeth LLC, priority 2005, dated 2011).
